The numbers were not newly measured in patent US20070212498A1, “Optical film, antireflection film, polarizing plate, display apparatus and method for manufacturing optical film” (FUJIFILM Corporation, priority 2006, published 2007), which cites them from elsewhere.

For this data set the following is noted: pKa of the conjugate acid, values in an aqueous solution (Kagaku Binran Kiso Hen).

For `CCC1CNCCO1` (centres unmarked) [b-13, 2-Ethyl morpholine], the pKa is given as 7.7.
With `CC1CNCCO1` (centres unmarked) [b-14, 2-Methyl morpholine], the pKa is 7.8.
